What is called solubility is the dissolved amount per volume that the medium holds.

Converted amounts (≈) assume the structure as drawn. Bounds are passed on as bounds.

This data set in a line: Solubility of coloring agent in PGMEA. The class given is physicochemical. The settings on record: propylene glycol methyl ether acetate (PGMEA), organic solvent or mixture, thermodynamic from solid, approx. 100 mg in 1 L propylene glycol methyl ether acetate at 25° C., stirred 30 minutes. As to the method:
In the present disclosure, the solubility of the coloring agent having a structure represented by Formula (1) (that is, the specific coloring agent) is measured and obtained by the following method.
Under atmospheric pressure, approximately 100 mg (precisely weighed value is X mg) of the coloring agent having a structure represented by Formula (1) is added to 1 L of propylene glycol methyl ether acetate at 25° C., and the mixture is stirred for 30 minutes, allowed to stand for 5 minutes, and filtered. Thereafter, the filtrate is dried under reduced pressure at 80° C. for 2 hours and precisely weighed (precisely weighed value is Y mg), and the solubility of the specific coloring agent dissolved in propylene glycol methyl ether acetate is calculated from the following expression. PGMEA solubility (mg/L) of specific coloring agent=X—Y
Under atmospheric pressure, approximately 100 mg of the dispersion liquid of the coloring agents shown in Tables 1 to 4 (value of the coloring agents shown Tables 1 to 4 precisely weighed is defined as X mg) was added to 1 L of propylene glycol methyl ether acetate at 25° C., and the mixture was stirred for 30 minutes. Next, the mixture was allowed to stand for 5 minutes and filtered, and the filtrate was dried under reduced pressure at 80° C. for 2 hours and weighed precisely (value of the filtrate precisely weighed is defined as Y mg). Solubility of the coloring agents shown in Tables 1 to 4 dissolved in propylene glycol methyl ether acetate was calculated from the following expression.
For `O=C1C(=O)/C(=C2/C=CC(=[N+]3CCC(C(=O)Oc4ccc(OC(=O)C5CC[N+](=C6C=C/C(=C7/C(=O)C(=O)C(c8ccc(N9CCC(C(=O)O)CC9)s8)=C7[O-])S6)CC5)cc4)CC3)S2)C([O-])=C1c1ccc(N2CCC(C(=O)O)CC2)s1` (centres unmarked) [A-cr-1], the solubility at 30 min was 50 to 100 µg/mL (≈ 44.2 to 88.4 µM).

On to `O=C1C(c2ccc3cccc4c3c2NC2(N4)c3ccccc3-c3ccc(OC(=O)c4ccc(C(=O)Oc5ccc6c(c5)C5(N=c7/c(=C8/C(=O)C(c9ccc%10cccc%11c%10c9NC9(N%11)c%10ccccc%10-c%10ccccc%109)=C8O)ccc8cccc(c78)N5)c5ccccc5-6)cc4)cc32)=C(O)/C1=c1/ccc2cccc3c2c1=NC1(N3)c2ccccc2-c2ccccc21` (centres unmarked) [A-sq-1], for which the solubility at 30 min was less than 10 µg/mL.

As for `CC(=O)Nc1cc2c(cc1C1=C([O-])/C(=c3/cc4c(cc3NC(=O)c3ccc(C(=O)Nc5cc6c(cc5C5=C([O-])/C(=c7/cc8c(cc7NC(C)=O)=[N+](C)C(C)C8(C)C)C5=O)C(C)(C)C(C)N6C)cc3)=[N+](C)C(C)C4(C)C)C1=O)C(C)(C)C(C)N2C` (centres unmarked) [A-sq-3], the solubility at 30 min was less than 10 µg/mL.

With `O=C1C(c2ccc3cccc4c3c2NB(c2ccc(-c3ccc(B5Nc6cccc7ccc(C8=C(O)/C(=c9/ccc%10cccc%11c%10c9=NB(c9ccccc9)N%11)C8=O)c(c67)N5)cc3)cc2)N4)=C(O)/C1=c1/ccc2cccc3c2c1=NB(c1ccccc1)N3` [A-sq-5], the solubility at 30 min is less than 10 µg/mL.

As to `O=C1C(c2ccc3cccc4c3c2NC2(N4)c3ccccc3-c3ccccc32)=C(O)C1C1C=Cc2cccc3c2C1=NC1(N3)c2ccccc2-c2ccccc21` (centres unmarked) [compound 3, reference compound], the solubility at 30 min is less than 10 µg/mL.

Source of the values: patent US12312473B2, “Composition, film, near-infrared cut filter, pattern forming method, laminate, solid-state imaging element, infrared sensor, image display device, camera module, and compound” (FUJIFILM Corporation, priority 2019, dated 2025).
